Experimental data taken from ChEMBL document CHEMBL3632623, “Discovery of Imidazo[1,2-α][1,8]naphthyridine Derivatives as Potential HCV Entry Inhibitor” (ACS Med Chem Lett, 2015).
Calls of active or inactive are those of the source. The calls are words filed in the database; no cut-off is given here.

What was measured:
Hepatitis C virus [1] = experiment: Antiviral activity against HCV genotype 2a JFH-1 infected in human Huh7.5.1 cells after 2 hrs by luciferase assay; assay type: functional, organism-based, Hepacivirus hominis; conditions: JFH-1, Huh-7, 2 h
[2] = Cytotoxicity against human Huh7.5.1 cells; assay type: cell-based, Huh-7
Hepatitis C virus [3] = experiment: Antiviral activity against HCV genotype 1b Con-1 infected in human HuH7 cells after 72 hrs by luciferase based replicon assay; assay type: functional, organism-based; conditions: Hepacivirus hominis; isolate Con1; Huh-7
Hepatitis C virus [4] = experiment: Antiviral activity against HCV genotype 2a JFH-1 in human Huh7.5.1 cells assessed as reduction of viral entry up to 3 hrs by luciferase assay; assay type: functional, organism-based; conditions: Hepacivirus hominis, Huh-7
Hepatitis C virus [5] = experiment: Antiviral activity against HCV genotype 2a JFH-1 in human Huh7.5.1 cells assessed as inhibition of viral attachment to heparan sulfate proteoglycans at 10 nM at 4 degC by luciferase assay; assay type: functional, organism-based; conditions: Hepacivirus hominis, Huh-7
Hepatitis C virus [6] = experiment: Ratio of RO8191 EC50 to compound EC50 for HCV genotype 2a JFH-1 infected in human Huh7.5.1 cells after 2 hrs by luciferase assay; assay type: functional, Hepacivirus hominis, Huh-7
Hepatitis B virus = experiment: Antiviral activity against HBV infected in human HepAD38 cells; assay type: functional, organism-based
[7] = Elimination half life in Wistar rat at 100 mg/kg, po; assay type: ADME, organism-based; conditions: in vivo, read-out: beta t1/2 (converted)
[8] = tested on: Middle East respiratory syndrome-related coronavirus; experiment: Antiviral activity against MERS infected in human HuH7 cells; assay type: functional, cell-based; conditions: Huh-7
[9] = Cytotoxicity against human RD cells; assay type: cell-based
[10] = AUC ( 0 to 24 hrs) in Wistar rat at 100 mg/kg, po; assay type: ADME, organism-based; set-up: time < 24 hr, dose 100 mg/kg, route oral; conditions: in vivo
[11] = Cmax in Wistar rat at 100 mg/kg, po; assay type: ADME, organism-based; set-up: dose 100 mg/kg, route oral; conditions: in vivo
Huh-7 [12] = experiment: Activation of ISRE reporter gene in human Huh7.5.1 cells at 2 to 50 uM after 24 hrs by luciferase assay; assay type: functional, cell-based
HepG2 = experiment: Activation of ISRE reporter gene in human HepG2 cells at 2 to 50 uM after 24 hrs by luciferase assay; assay type: functional, cell-based
[13] = Cytotoxicity against human HepAD38 cells; assay type: cell-based
Hepatitis C virus [14] = experiment: Antiviral activity against HCV genotype 2a JFH-1 in human Huh7.5.1 cells assessed as inhibition of viral attachment to heparan sulfate proteoglycans at 0.2 uM at 4 degC by luciferase assay; assay type: functional, organism-based; conditions: Hepacivirus hominis, Huh-7
[15] = tested on: Human immunodeficiency virus; experiment: Antiviral activity against HIV infected in human Ghost cells; assay type: functional, organism-based; conditions: Human immunodeficiency virus 1, Ghost
[16] = Cytotoxicity against human GHOST cells; assay type: cell-based
[17] = Tmax in Wistar rat at 100 mg/kg, po; assay type: ADME, organism-based; conditions: in vivo
[18] = Cytotoxicity against human HuH7 cells; assay type: cell-based, Huh-7
[19] = AUC ( 0 to infinity) in Wistar rat at 100 mg/kg, po; assay type: ADME, organism-based; set-up: dose 100 mg/kg, route oral, time infinity; conditions: in vivo
Huh-7 [20] = experiment: Activation of ISRE reporter gene in human HuH7 cells at 2 to 50 uM after 24 hrs by luciferase assay; assay type: functional, cell-based
Hepatitis C virus [21] = experiment: Antiviral activity against HCV genotype 2a JFH-1 in human Huh7.5.1 cells assessed as inhibition of post-attachment infection phase at 0.2 uM after 3 days by luciferase assay; assay type: functional, Hepacivirus hominis; conditions: JFH-1, Huh-7, 72 h
Vero = experiment: Activation of ISRE reporter gene in African green monkey Vero cells at 4 to 100 uM after 24 hrs by luciferase assay; assay type: functional, cell-based; conditions: Chlorocebus sabaeus
Enterovirus A71 = experiment: Antiviral activity against EV71 infected in human RD cells; assay type: functional, organism-based; conditions: Enterovirus A
Hepatitis C virus [22] = experiment: Antiviral activity against HCV; assay type: functional, organism-based, Hepacivirus hominis

`O=C1CN(C(=O)c2cn3c(ccc4c(C(F)(F)F)cc(C(F)(F)F)nc43)n2)CCN1` gave an EC50 (Hepatitis C virus [1]) of 12.5 µM and a CC50 [2] greater than 25 µM.
For `NCCCCNC(=O)c1cn2c(ccc3c(C(F)(F)F)cc(C(F)(F)F)nc32)n1`, the EC50 (Hepatitis C virus [1]) was 1.13 µM and the CC50 [2] was greater than 25 µM.
With `CN1CCN(C(=O)c2cn3c(ccc4c(C(F)(F)F)cc(C(F)(F)F)nc43)n2)CC1` the EC50 (Hepatitis C virus [1]) was 0.159 µM, the Activity (Hepatitis C virus [3]) was “inactive” and the CC50 [2] was greater than 25 µM.
With `CO/C1=C\C(C)=C\[C@@H](C)[C@@H](O)[C@@H](C)C/C(C)=C/C=C/[C@H](OC)[C@@H]([C@@H](C)[C@@H](O)[C@H](C)[C@@]2(O)C[C@@H](O)[C@H](C)[C@@H](C(C)C)O2)OC1=O` the inhibition (Hepatitis C virus [4]) was “Active” and the inhibition (Hepatitis C virus [5]) was “inactive”.
For `COC(=O)CN1CCN(C(=O)c2cn3c(ccc4c(C(F)(F)F)cc(C(F)(F)F)nc43)n2)CC1`, the EC50 (Hepatitis C virus [1]) was 13.2 µM and the CC50 [2] was greater than 25 µM.
With `O=C(c1cn2c(ccc3c(C(F)(F)F)cc(C(F)(F)F)nc32)n1)N1CCOCC1` the EC50 (Hepatitis C virus [1]) was greater than 20 µM and the CC50 [2] was greater than 25 µM.
In the case of `O=C(c1cn2c(ccc3c(C(F)(F)F)cc(C(F)(F)F)nc32)n1)N1CCNCC1`, the EC50 (Hepatitis C virus [1]) is reported as 0.046 µM, the Activity (Hepatitis C virus [3]) is reported as “inactive” and the “Ratio EC50” value (Hepatitis C virus [6]) is reported as 5. It also gave a CC50 [2] greater than 25 µM.
`COC(=O)C1CCN(C(=O)c2cn3c(ccc4c(C(F)(F)F)cc(C(F)(F)F)nc43)n2)CC1` showed an EC50 (Hepatitis C virus [1]) of 12.7 µM and a CC50 [2] greater than 25 µM.
For `CNCCN(C)C(=O)c1cn2c(ccc3c(C(F)(F)F)cc(C(F)(F)F)nc32)n1`, the EC50 (Hepatitis C virus [1]) was 0.02 µM, the Activity (Hepatitis C virus [3]) was “inactive” and the “Ratio EC50” value (Hepatitis C virus [6]) was 5. It also gave a CC50 [2] greater than 25 µM.
`Nc1cccc(NC(=O)c2cn3c(ccc4c(C(F)(F)F)cc(C(F)(F)F)nc43)n2)c1` gave an EC50 (Hepatitis C virus [1]) greater than 20 µM and a CC50 [2] greater than 25 µM.
For `CN(C)CCNC(=O)c1cn2c(ccc3c(C(F)(F)F)cc(C(F)(F)F)nc32)n1`, the EC50 (Hepatitis C virus [1]) was 0.069 µM, the Activity (Hepatitis C virus [3]) was “inactive” and the CC50 [2] was greater than 25 µM.
In the case of `CC1CN(C(=O)c2cn3c(ccc4c(C(F)(F)F)cc(C(F)(F)F)nc43)n2)CCN1` (centres undefined), the EC50 (Hepatitis C virus [1]) is reported as 0.067 µM, the Activity (Hepatitis C virus [3]) is reported as “inactive” and the “Ratio EC50” value (Hepatitis C virus [6]) is reported as 5. It also gave a CC50 [2] greater than 25 µM.
For `O=C(c1cn2c(ccc3c(C(F)(F)F)cc(C(F)(F)F)nc32)n1)N1CCC(O)CC1`, the EC50 (Hepatitis C virus [1]) was greater than 20 µM and the CC50 [2] was greater than 25 µM.
For `NCCNC(=O)c1cn2c(ccc3c(C(F)(F)F)cc(C(F)(F)F)nc32)n1`, the EC50 (Hepatitis C virus [1]) was 0.017 µM, the EC50 (Hepatitis B virus) was greater than 20 µM and the half-life [7] was 2.93 h. The inhibition (Hepatitis C virus [4]) was “Active”, the Activity (Hepatitis C virus [3]) was “inactive” and the “Ratio EC50” value (Hepatitis C virus [6]) was 5. It also gave an EC50 [8] greater than 20 µM, a CC50 [9] greater than 20 µM and an AUC(0-t) at 24 h [10] of 19 µM·h. The Cmax [11] was 2050 nM, the Activity (Huh-7 [12]) was “inactive” and the Activity (HepG2) was “inactive”. The CC50 [13] was greater than 20 µM, the inhibition (Hepatitis C virus [14]) was “Active” and the EC50 [15] was greater than 20 µM. The CC50 [16] was greater than 20 µM, the Tmax [17] was 2.17 h and the CC50 [18] was greater than 20 µM. For the same compound, the CC50 [2] was greater than 25 µM, the AUC(0-inf) [19] was 19.1 µM·h and the Activity (Huh-7 [20]) was “inactive”. For the same compound, the inhibition at 0.2 µM (Hepatitis C virus [21]) was 90%, the Activity (Vero) was “inactive” and the EC50 (Enterovirus A71) was greater than 20 µM.
For `NCCCNC(=O)c1cn2c(ccc3c(C(F)(F)F)cc(C(F)(F)F)nc32)n1`, the EC50 (Hepatitis C virus [1]) was 1.3 µM and the CC50 [2] was greater than 25 µM.
In the case of `Nc1ccccc1NC(=O)c1cn2c(ccc3c(C(F)(F)F)cc(C(F)(F)F)nc32)n1`, the EC50 (Hepatitis C virus [1]) is reported as greater than 20 µM and the CC50 [2] is reported as greater than 25 µM.
`O=C(c1cn2c(ccc3c(C(F)(F)F)cc(C(F)(F)F)nc32)n1)N1CCC(CO)CC1` showed an EC50 (Hepatitis C virus [1]) greater than 20 µM and a CC50 [2] greater than 25 µM.
`Nc1ccc(NC(=O)c2cn3c(ccc4c(C(F)(F)F)cc(C(F)(F)F)nc43)n2)cc1` showed an EC50 (Hepatitis C virus [1]) greater than 20 µM and a CC50 [2] greater than 25 µM.
For `O=C(c1cn2c(ccc3c(C(F)(F)F)cc(C(F)(F)F)nc32)n1)N1CCCC1CO` (centres undefined), the EC50 (Hepatitis C virus [1]) was 16.6 µM and the CC50 [2] was greater than 25 µM.
With `FC(F)(F)c1cc(C(F)(F)F)c2ccc3nc(-c4nnco4)cn3c2n1` the Activity (Hepatitis C virus [3]) was “Active”, the Activity (Huh-7 [12]) was “Active” and the Activity (HepG2) was “Active”. For the same compound, the EC50 (Hepatitis C virus [22]) was 0.203 µM, the Activity (Huh-7 [20]) was “Active” and the Activity (Vero) was “Active”.
`COC(=O)C1CCCN(C(=O)c2cn3c(ccc4c(C(F)(F)F)cc(C(F)(F)F)nc43)n2)C1` (centres undefined) gave an EC50 (Hepatitis C virus [1]) of 2.54 µM and a CC50 [2] greater than 25 µM.
In the case of `NC1CCN(C(=O)c2cn3c(ccc4c(C(F)(F)F)cc(C(F)(F)F)nc43)n2)CC1`, the EC50 (Hepatitis C virus [1]) is reported as 0.102 µM, the Activity (Hepatitis C virus [3]) is reported as “inactive” and the CC50 [2] is reported as greater than 25 µM.
In the case of `NC1CCCCC1NC(=O)c1cn2c(ccc3c(C(F)(F)F)cc(C(F)(F)F)nc32)n1` (centres undefined), the EC50 (Hepatitis C virus [1]) is reported as 0.048 µM, the Activity (Hepatitis C virus [3]) is reported as “inactive” and the “Ratio EC50” value (Hepatitis C virus [6]) is reported as 5. For the same compound, the CC50 [2] was greater than 25 µM.
Work on `CCOC(=O)[C@@H](CCCCN)NC(=O)c1cn2c(ccc3c(C(F)(F)F)cc(C(F)(F)F)nc32)n1` yielded an EC50 (Hepatitis C virus [1]) of 0.14 µM and a CC50 [2] greater than 25 µM.
In the case of `NC1CCN(C(=O)c2cn3c(ccc4c(C(F)(F)F)cc(C(F)(F)F)nc43)n2)C1` (centres undefined), the EC50 (Hepatitis C virus [1]) is reported as 0.021 µM, the Activity (Hepatitis C virus [3]) is reported as “inactive” and the “Ratio EC50” value (Hepatitis C virus [6]) is reported as 5. For the same compound, the CC50 [2] was greater than 25 µM.
